# Results as given in BindingDB's records for doi:10.1016/j.bmcl.2017.08.043 (Vanderbilt University, 2017).
# pEC50: −log10 of the molar value.
# Target: T1, Muscarinic acetylcholine receptor M4 (Homo sapiens, UniProt P08173)
# T1 sequence (P08173 whole entry): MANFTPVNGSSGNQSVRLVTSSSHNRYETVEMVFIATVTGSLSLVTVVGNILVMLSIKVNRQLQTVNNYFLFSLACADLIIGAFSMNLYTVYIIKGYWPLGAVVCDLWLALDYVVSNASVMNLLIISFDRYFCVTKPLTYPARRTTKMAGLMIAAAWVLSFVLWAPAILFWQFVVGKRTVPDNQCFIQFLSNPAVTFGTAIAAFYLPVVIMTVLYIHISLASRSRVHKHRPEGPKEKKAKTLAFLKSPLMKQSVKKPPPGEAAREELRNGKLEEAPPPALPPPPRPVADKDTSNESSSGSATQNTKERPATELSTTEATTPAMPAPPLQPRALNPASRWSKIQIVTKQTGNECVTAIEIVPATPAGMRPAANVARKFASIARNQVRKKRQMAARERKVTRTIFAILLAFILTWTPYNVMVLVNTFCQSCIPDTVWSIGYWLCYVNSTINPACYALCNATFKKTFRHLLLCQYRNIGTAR
# Assay: ChEBML_1696020
# Description: Positive allosteric modulation of human M4 receptor expressed in CHO cells co-expressing Gqi5 assessed as increase in acetylcholine-induced calcium mobilization
smiles,measurement,value
N#Cc1cnc2ccc(F)cc2c1N1CCC(C(=O)NCc2ccccc2)CC1,pEC50,6.05
